# According to PMC8699189 (Biomolecules, 2021):
# Molecular target: T1, MavL(42-435) (Legionella pneumophila, UniProt Q5ZSJ1)
# T1 construct: gene lpg2526
# Conditions: 15 mM Tris-HCl pH 8.0, 50 mM NaCl, 20 °C; 300 µM ligand into 30 µM protein
# T1 sequence (Q5ZSJ1 42-435 limits assumed): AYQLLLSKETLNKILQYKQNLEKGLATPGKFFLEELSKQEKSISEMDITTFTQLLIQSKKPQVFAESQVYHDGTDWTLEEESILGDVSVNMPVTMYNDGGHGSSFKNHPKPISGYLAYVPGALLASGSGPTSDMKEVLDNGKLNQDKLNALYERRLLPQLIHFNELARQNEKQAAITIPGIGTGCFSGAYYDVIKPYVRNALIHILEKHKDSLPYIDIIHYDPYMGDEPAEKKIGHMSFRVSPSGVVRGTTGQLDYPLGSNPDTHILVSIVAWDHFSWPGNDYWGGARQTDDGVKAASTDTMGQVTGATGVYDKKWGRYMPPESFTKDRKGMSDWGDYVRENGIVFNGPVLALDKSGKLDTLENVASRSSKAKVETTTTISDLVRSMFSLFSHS
compound,measurement,value
Nc1ncnc2c1ncn2[C@@H]1O[C@H](COP(=O)(O)OP(=O)(O)OC[C@H]2OC(O)[C@H](O)[C@@H]2O)[C@@H](O)[C@H]1O (stereo partly shown) [ADP-ribose],Kd,13 µM
